According to publication PMC12196476, “New Nitrogen-, Oxygen-, and Sulfur-Containing Heterocyclic Compounds as Anti-Colon Cancer Agents: Synthesis, Multitargeted Evaluations, Molecular Docking Simulations and ADMET Predictions” (Pharmaceuticals, 2025):

Legend:
[1] = test system: HCT-116 colon carcinoma cells; assay: Cell viability, LDH release assay, HCT-116; conditions: for viability at 100 µg/mL / IC50: Homo sapiens, HCT-116, 48 h; for viability at 100 µg/mL: read-out: Mean % of viable cells ± SD, HCT-116, 100 µg/mL, 48 h, LDH release assay; for IC50: read-out: Mean IC50 Values in µM ± SD, HCT-116 cells
Description: (§1) The studied compounds were also screened for their cytotoxic effects on HCT-116 and LoVo colon carcinoma cells, as well as normal HUVECs, using the standard LDH assay at a concentration of 100 µg/mL.
(§2) The antiproliferative activities of the newly synthesized compounds 3a–e, 8, 9a–c, 13, 14, 17, 18a–h, 20, 22, 23 and 25 were examined on human colon HCT-116 and LoVo cell lines as well as HUVEC (American Type Culture Collection, Manassas, VA, USA). […]
(§3) S3.2.4. Cell culture and viability assay.
(§4) The cytotoxic activities of the newly synthesized compounds (3a-e, 8, 9a-c, 13, 14, 17, 18a-h, 20, 22,
(§5) 23, and 25) were examined on human colon cancer cell lines HCT-116 and Lovo (American Type
(§6) Culture Collection, USA). Various concentrations (50, 100, 200, and 400 μg/mL) of test compounds
(§7) were prepared in Dulbecco’s Modified Eagles Medium (PAN-Biotech, Barcelona, Spain),

PDK-1 = PDK-1 (Homo sapiens, UniProt Q15118); assay: In vitro PDK-1 inhibition assay (Kinase-Glo luminescent kinase kit); format: biochemical; conditions: for inhibition at 100 µg/mL: three replicates, read-out: Mean Inhibition Percent ± SD, PDK-1; for IC50: three independent experiments, read-out: Mean IC50 µM ± SD, PDK-1
Description: Principally, the PDK-1 inhibitory activities were evaluated using the non-radioactive Kinase-Glo™ Luminescent Kinase Kit (Promega Corporation, Madison, WI, USA) following the instructions of the manufacturer.
S3.2.2. In vitro PDK-1 inhibition assay.
The PDK-1 inhibitory activities of the test compounds were evaluated using the non-radioactive
Kinase-Glo™ Luminescent Kinase kit (Promega Corporation, Madison, WI, USA), following the
manufacturer’s protocol. Briefly, 5 μL of assay buffer—containing 10 × 250 mM Tris-HCl, 50 mM
MgCl2, 5 mM ethyleneglycol-bis(β-aminoethylether)-N,N,N′,N′-tetraacetic acid (EGTA), 10 mM
ethylenedi- aminetetraacetic acid (EDTA), and 10 mM dithiothreitol (DTT)—was added to each
well of a 96-well plate, along with 25 μL of distilled water. Subsequently, 5 μL of each test
compound at various concentrations (50, 100, 200 and 300 μg/mL in 1% DMSO) was added to the
respective wells, except for the two control wells, which received 5 μL of either PBS buffer or 1%
DMSO. Then, 5 μL of pyruvate dehydrogenase E1 (PDH E1) protein (10 μM) and 5 μL of ATP
(10 μM) were added to each well. To initiate phosphorylation, 5 μL of PDK-1 (20 μM) in protein
buffer (1 mM MgCl2, 2000 mM KCl, 40 mM K3PO4) was added to all the wells except the control
wells, which received 5 μL of protein buffer instead. The plate was then mixed thoroughly and
incubated at 37 °C for 30 minutes. After incubation, 50 μL of kinase-Glo® reagent was added to each
well, followed by a 10-minute incubation at room temperature with gentle shaking to stabilize the
luminescent signal. Luminescence was then measured using a microplate reader.
The IC50 value—defined as the concentration of a compound required to reduce luminescence by
50%, compared to untreated control wells—was determined for each compound from the
corresponding dose–response curve generated by plotting PDK-1 inhibition (%) versus compound
concentration. Sodium dichloroacetate (SDA, 1000 μM) was used as a reference PDK-1inhibitor. […]

[2] = test system: LoVo colon carcinoma cells; assay: Cell viability, LDH release assay, LoVo; conditions: for viability at 100 µg/mL / IC50: Homo sapiens, LoVo, 48 h; for viability at 100 µg/mL: read-out: Mean % of viable cells ± SD, LoVo, 100 µg/mL, 48 h, LDH release assay; for IC50: read-out: Mean IC50 Values in µM ± SD, LoVo cells
Description: as §1, §2, §3, §4, §5, §6, §7

[3] = molecular target: recombinant human LDHA protein (Homo sapiens, UniProt P00338); assay: In vitro LDHA inhibitory assay (NADH consumption); format: biochemical; conditions: for inhibition at 100 µg/mL: three replicates, read-out: Mean Inhibition Percent ± SD, LDHA; for IC50: three independent experiments, read-out: Mean IC50 µM ± SD, LDHA
Excerpt: The LDHA inhibitory efficiencies were investigated on Spectramax M2 spectrofluorometer via measuring the amounts of the consumed NADH^40 using an NAD^+/NADH quantification kit. […]
S3.2.3. In vitro LDHA inhibitory assay.
The LDHA inhibitory activity of the test compounds was investigated using Spectramax M2
spectrofluorometer by measuring the amounts of the consumed NADH [42] employing
NAD+/NADH quantification kit. Briefly, the assay medium containing various concentrations of
each test compound (50, 100, 200 and 300 μg/mL) was incubated in assay medium composed of 20
mM of HEPES-K+ buffer (pH 7.2), 20 μM of NADH, 2 mM of pyruvate and 10 ng of purified
recombinant human LDHA protein for 10 min utes. The activity of LDHA would result in reduction
of pyruvate into lactate with concomitant oxidation of NADH to NAD +. Since NADH (reduced
LDHA, could be inversely quantified by monitoring the change in the intensity of the fluorescence
at 340 nm over a 10-minute period. The rate of the fluorescence change (slope) in treated samples
was compared to that obtained from negative control experiment (100 % enzymatic activity) to
determine the percentage of inhibition. The IC50 value—defined as the compound concentration
required to reduce the luminescence by 50%, compared to untreated control wells—was
determined for each compound from the corresponding dose–response curve generated by
plotting LDHA inhibition (%) against compound concentration.
was used as the reference LDHA inhibitor. […]

[4] = Cell viability, LDH release assay, normal HUVECs; conditions: human, normal HUVECs, Mean % of viable cells ± SD, HUVEC
Description: as §1, §2
medium served used as negative and positive controls, respectively. Percentages of viable cells […]
were calculated based on relative optical density (OD) values (at 550 nm) for compound-treated […]
wells (final concentration of 100 μg/mL), compared to the negative control, and expressed as mean value (%) ± SD from two replicates. Graphing dose-response curves representing the compound […]
concentration versus the percentages of viable cells was also conducted to deduce the half - […]
Additionally, the safety profiles of the studied compounds were assessed against normal cells […]
(HUVECs) at final concentration of 100 μg/mL . HUVECs were grown in Dulbecco’s Modified Eagle’s Medium supplemented with 10% FBS, 2 mM glutamine (Sigma Aldrich), 100 units/mL penicillin and […] streptomycin (Life Technologies; Paisley, UK). […]

[5] = DPPH radical scavenging assay; conditions: three independent experiments; read-out: Mean IC50 (mM) for initial DPPH radicals ± SD
Description: The antioxidant activities of the studied compounds were assessed using the 1,1-diphenyl-2-picrylhydrazyl (DPPH) radical scavenging method as detailed by Bersuder et al.. The results were expressed as IC50 (mM)—the concentration of the test compound required to neutralize 50% of DPPH radicals.
The antioxidant efficiencies of target compounds were determined using the 1,1-diphenyl-2-picrylhydrazyl (DPPH) radical scavenging method as detailed by Bersuder et al.. […]
S3.2. Evaluation of Biological Activities.
S3.2.1. In vitro DPPH radical scavenging assay.
The antioxidant efficiencies of compounds—3a−e, 8, 9a−c, 13, 14, 17, 18a−h, 20, 22, 23, and 25—were
determined using the 1,1-diphenyl-2-picrylhydrazyl (DPPH) radical scavenging method as
detailed by Bersuder et al.. Fundamentally, the purple color of the stabilized DPPH radical
fades in the presence of an antioxidant, thus, the change of absorbance can be followed
spectrophotometrically at 519 nm. In the assay, equal volumes (0.5 mL) of DPPH ethanolic solution
and each compound (0-2 mg/mL in DMSO) or butylated hydroxytoluene (BHT) as the reference
were mixed well by shaking. The negative control consisted of the same amount of DMSO and
DPPH solution. After, incubation all mixtures at room temperature in the dark for one hour, the
absorbance of the residual DPPH radicals was measured at 519 nm using the UV‐vis
spectrophotometer. The DPPH radical scavenging activity of each compound (%) was calculated
Scavenging activity = (1 − Acompound/AControl) * 100, where Acompound and Acontrol the absorbance values
of each tested compound (or BHT) and the negative control, respectively. The half maximal
inhibitory concentration (IC50) for each compound in mg/mL was deduced by graphing the dose-
response curve relating the scavenging activity (%) to the compound concentration. Data points
represent the mean ± standard deviation (SD) of three independent determinations.

[6] = 0.1% Triton X-100 in assay medium

Chain of PDK-1 (Q15118 29-436): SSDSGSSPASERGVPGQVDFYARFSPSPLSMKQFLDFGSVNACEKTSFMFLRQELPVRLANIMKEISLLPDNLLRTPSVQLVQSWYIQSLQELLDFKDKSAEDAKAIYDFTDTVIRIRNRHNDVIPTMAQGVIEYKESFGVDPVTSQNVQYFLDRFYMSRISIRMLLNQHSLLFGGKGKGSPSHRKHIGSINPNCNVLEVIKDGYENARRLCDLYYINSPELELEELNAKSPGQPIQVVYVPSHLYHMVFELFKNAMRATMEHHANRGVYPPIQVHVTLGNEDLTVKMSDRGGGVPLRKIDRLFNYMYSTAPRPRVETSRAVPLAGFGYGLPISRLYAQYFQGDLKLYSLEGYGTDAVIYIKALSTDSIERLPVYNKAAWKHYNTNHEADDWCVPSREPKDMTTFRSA

| Compound | viability at 100 µg/mL [1] | IC50 [1] | inhibition at 100 µg/mL (PDK-1) | IC50 (PDK-1) | viability at 100 µg/mL [2] | IC50 [2] | inhibition at 100 µg/mL [3] | IC50 [3] | viability at 48 h, 100 µg/mL [4] | IC50 [5] | Mean % of viable cells, HCT-116 (positive control) [1, 6] | Mean % of viable cells, LoVo (positive control) [2, 6] |
| --- | --- | --- | --- | --- | --- | --- | --- | --- | --- | --- | --- | --- |
| COc1cc(OC)c(/C=N/c2sc3c(c2C#N)CCCC3)c(OC)c1 [Compound 3b, (E)-2-((2,4,6-Trimethoxybenzylidene)amino)-4,5,6,7-tetrahydrobenzo[b]thiophene-3-carbonitrile] | < 29% | 170 µM | 94.7 ± 2.33% | 147 ± 5.95 µM | < 29% | 190 µM | 82.8 ± 3.18% | 167 ± 10.1 µM | ~90% | 0.522 ± 0.025 mM |  |  |
| CCOC(=O)c1sc(/N=C/c2c(O)ccc3ccccc23)nc1C [Compound 9c, Ethyl(E)-2-(((2-hydroxynaphthalen-1-yl)methylene)amino)-4-methylthiazole-5-carboxylate] | 64.3 ± 3.06% |  | 48.8 ± 1.77% |  | 60.3 ± 2.12% |  | 67.3 ± 3.32% |  | 80.7 ± 3.22% | 0.881 ± 0.041 mM |  |  |
| Triton X-100 [reference compound] |  |  |  |  |  |  |  |  |  |  | 0% | 0% |
| COc1cc(/C=N/c2ncnc3sc4c(c23)CCCC4)cc(Br)c1O [Compound 3c, (E)-2-Bromo-6-methoxy-4-(((5,6,7,8-tetrahydrobenzo[4,5]thieno[2,3-d]pyrimidin-4-yl)imino)methyl)phenol] | 89.3 ± 4.16% |  | 7.6 ± 0.85% |  | 95.7 ± 1.53% |  | 40 ± 1.41% |  | 93 ± 2.65% | 0.476 ± 0.038 mM |  |  |
| CCOC(=O)Nn1c(C)nc2cc(OC)c(OC)cc2c1=O [Compound 17, Ethyl (6,7-Dimethoxy-2-methyl-4-oxoquinazolin-3(4H)-yl)carbamate] | 20.5 ± 2.12% | 302 ± 10.5 µM | 91 ± 2.83% | 169 ± 1.81 µM | 10.5 ± 0.71% | 277 ± 0.21 µM | 5.75 ± 0.35% | 1060 ± 7.64 µM | 96 ± 2.56% | 0.307 ± 0.01 mM |  |  |
| Cc1nc2ccc(F)cc2c(=O)n1/N=C/c1c(O)ccc2ccccc12 [Compound 18f, (E)-6-Fluoro-3-(((2-hydroxynaphthalen-1-yl)methylene)amino)-2-methylquinazolin-4(3H)-one] | 83 ± 3% |  | 52 ± 3.61% |  | 73 ± 3.46% |  | 14.4 ± 1.41% |  | 83 ± 1.73% | 0.288 ± 0.029 mM |  |  |
